According to US20200247897A1, “THERAPEUTIC ANTIBODIES BASED ON MUTATED IGG HEXAMERS” (GENMAB B.V., priority 2017, published 2020):
Like-named read-outs stand apart in the source and are kept apart here.

How the values were obtained:
[1] = test system: HCT 116; assay: Drug combination screen (ATPlite, Synergy Score), HCT 116
[2] = test system: SW480; assay: Drug combination screen (ATPlite, Synergy Score), SW480; type: cell-based, human
[3] = test system: SNU-C2B; assay: Drug combination screen (ATPlite, Synergy Score), SNU-C2B
[4] = test system: LS-411N; assay: Drug combination screen (ATPlite, Synergy Score), LS-411N; type: cell-based, human
[5] = test system: DLD-1; assay: Drug combination screen (ATPlite, Synergy Score), DLD-1
[6] = compound in combination with IgG1-hDR5-01-G56T-E430G + IgG1-hDR5-05-E430G, HCT 116, 120 hour ATPlite, 6x6 matrix
[7] = compound in combination with IgG1-hDR5-01-G56T-E430G + IgG1-hDR5-05-E430G, SW480, 72 hour ATPlite, 6x6 matrix
[8] = compound in combination with IgG1-hDR5-01-G56T-E430G + IgG1-hDR5-05-E430G, SNU-C2B, 72 hour ATPlite, 6x6 matrix
[9] = compound in combination with IgG1-hDR5-01-G56T-E430G + IgG1-hDR5-05-E430G, LS-411N, 72 hour ATPlite, 6x6 matrix
[10] = compound in combination with IgG1-hDR5-01-G56T-E430G + IgG1-hDR5-05-E430G, DLD-1, 120 hour ATPlite, 6x6 matrix

Row | Compound | Synergy Score HCT-116 [1, 6] | Synergy Score SW480 [2, 7] | Synergy Score SNU-C2B [3, 8] | Synergy Score LS-411N [4, 9] | Synergy Score DLD-1 [5, 10] | Synergy Score HCT-116 [1] | Synergy Score SW480 [2] | Synergy Score SNU-C2B [3] | Synergy Score LS-411N [4] | Synergy Score DLD-1 [5]
1 | O=C(c1cc(Cc2n[nH]c(=O)c3ccccc23)ccc1F)N1CCN(C(=O)C2CC2)CC1 [Olaparib] | 1.8 | 1 | 2.5 | 2.7 | 0.7 | – | – | – | – | –
2 | C=CCc1cccc(/C=N/NC(=O)CN2CCN(Cc3ccccc3)CC2)c1O [PAC 1] | 4.2 | 3.9 | 6 | 2.9 | 10.6 | – | – | – | – | –
3 | CC(=O)Nc1nc(C)c(-c2ccc(Cl)c(S(=O)(=O)NCCO)c2)s1 [PIK-93] | – | – | – | – | – | 1.2 | 4.1 | 5.1 | 5.2 | 1
4 | CCCS(=O)(=O)Nc1ccc(F)c(C(=O)c2c[nH]c3ncc(-c4ccc(Cl)cc4)cc23)c1F [PLX-4032] | 0.1 | 1 | 0.5 | 0.6 | 0.6 | – | – | – | – | –
5 | Nc1cccc2c1C(=O)N(C1CCC(=O)NC1=O)C2=O (stereo not shown) [Pomalidomide] | 0 | 0 | 0.5 | 0 | 0.1 | – | – | – | – | –
6 | C[C@]12C=CC(=O)C=C1CC[C@@H]1[C@@H]2C(=O)C[C@@]2(C)[C@H]1CC[C@]2(O)C(=O)CO [Prednisone] | 0 | 0 | 0.2 | 0.1 | 0.1 | – | – | – | – | –
7 | Cn1c(Nc2ccc(C(F)(F)F)cc2)nc2cc(Oc3ccnc(-c4ncc(C(F)(F)F)[nH]4)c3)ccc21 [RAF265] | 2.5 | 4.5 | 3.7 | 10.5 | 5.6 | – | – | – | – | –
8 | O=C1NC(=O)C(c2ccccc2[N+](=O)[O-])=C1Nc1ccc(O)c(Cl)c1 [SB 415286] | 0.8 | 3.8 | 0.7 | 2.1 | 0.4 | – | – | – | – | –
9 | Cn1cc(C2=C(c3ccc(Cl)cc3Cl)C(=O)NC2=O)c2ccccc21 [SB-216763] | 0.1 | 1.4 | 0.3 | 1.1 | 0.5 | – | – | – | – | –
10 | Oc1c2ccccc2c2c3c(cccc13)N=N2 [SP 600125] | 0.6 | 0.9 | 2 | 0.5 | 3.3 | – | – | – | – | –
11 | CC(C)=CCC/C(C)=C/CC/C(C)=C/CSc1ccccc1C(=O)O [Salirasib] | 0.1 | 0.4 | 0.4 | 0 | 0.1 | – | – | – | – | –
12 | CNC(=O)c1cc(Oc2ccc(NC(=O)Nc3ccc(Cl)c(C(F)(F)F)c3)cc2)ccn1 [Sorafenib] | 0.5 | 3.9 | 2.9 | 6 | 2.6 | – | – | – | – | –
13 | Cc1ccccc1CN1C(=O)C2=C(CCN(Cc3ccccc3)C2)N2CCN=C12 [TIC10] | – | – | – | – | – | 2.2 | 3.4 | 13.1 | 23.3 | 15.5
14 | CO[C@H]1C[C@@H]2CC[C@@H](C)[C@@](O)(O2)C(=O)C(=O)N2CCCC[C@H]2C(=O)O[C@H]([C@H](C)C[C@@H]2CC[C@@H](OC(=O)C(C)(CO)CO)[C@H](OC)C2)CC(=O)[C@H](C)/C=C(\C)[C@@H](O)[C@@H](OC)C(=O)[C@H](C)C[C@H](C)/C=C/C=C/C=C/1C [Temsirolimus] | 0.6 | 1.6 | 4.5 | 0.6 | 0.7 | – | – | – | – | –
15 | CC(=O)Nc1cccc(-n2c(=O)n(C3CC3)c(=O)c3c(Nc4ccc(I)cc4F)n(C)c(=O)c(C)c32)c1 [Trametinib] | 4 | 7.2 | 0.6 | 0.9 | 4.1 | – | – | – | – | –
16 | COc1cc2nccc(Oc3ccc(NC(=O)C4(C(=O)Nc5ccc(F)cc5)CC4)cc3)c2cc1OC [XL184] | 1 | 6 | 1.5 | 5.8 | 4.1 | – | – | – | – | –
17 | COCCn1c2c([n+](Cc3cnccn3)c1C)C(=O)c1ccccc1C2=O [YM155] | 0.5 | 12.1 | 11.5 | 9 | 5.2 | – | – | – | – | –
18 | CC(=O)O[C@@]12CO[C@@H]1C[C@H](O)[C@@]1(C)C(=O)[C@H](O)C3=C(C)[C@@H](OC(=O)[C@H](O)[C@@H](NC(=O)OC(C)(C)C)c4ccccc4)C[C@@](O)([C@@H](OC(=O)c4ccccc4)[C@H]21)C3(C)C [docetaxel] | 7.9 | 19.5 | 15.8 | 36.2 | 17.6 | – | – | – | – | –
19 | CCc1c2c(nc3ccc(OC(=O)N4CCC(N5CCCCC5)CC4)cc13)-c1cc3c(c(=O)n1C2)COC(=O)[C@]3(O)CC [irinotecan, reference compound] | 4.4 | 24.7 | 13.4 | 6.8 | 15 | – | – | – | – | –
20 | IC-87114 | 0.1 | 0 | 0.1 | 0.2 | 0 | – | – | – | – | –
